From the NIST ThermoML archive (doi:10.1021/je400056z)
± gives the expanded uncertainty stated by the source.

Assay: xn = mol fraction of the nth substance listed
Conditions: Liquid, Vibrating tube method

CCCCCCC [heptane] + O=C=O
Conditions | mass density [kg/m3]
332.8 K, 25003 kPa, x2 = 0.0218 | 677.55 ± 0.48
332.83 K, 6993 kPa, x2 = 0.5085 | 682.63 ± 0.32
332.83 K, 8019 kPa, x2 = 0.5085 | 685.45 ± 0.32
332.83 K, 9012 kPa, x2 = 0.5085 | 688 ± 0.32
332.83 K, 10004 kPa, x2 = 0.5085 | 690.4 ± 0.33
332.83 K, 11006 kPa, x2 = 0.5085 | 692.81 ± 0.34
332.83 K, 12005 kPa, x2 = 0.5085 | 695.15 ± 0.34
332.83 K, 13003 kPa, x2 = 0.5085 | 697.36 ± 0.35
332.83 K, 13999 kPa, x2 = 0.5085 | 699.53 ± 0.36
332.83 K, 15005 kPa, x2 = 0.5085 | 701.72 ± 0.36
332.83 K, 16003 kPa, x2 = 0.5085 | 703.82 ± 0.37
332.83 K, 17000 kPa, x2 = 0.5085 | 706.1 ± 0.38
332.83 K, 18006 kPa, x2 = 0.5085 | 708.26 ± 0.38
332.83 K, 19000 kPa, x2 = 0.5085 | 710.51 ± 0.39
332.83 K, 20000 kPa, x2 = 0.5085 | 712.6 ± 0.4
332.83 K, 20991 kPa, x2 = 0.5085 | 714.75 ± 0.4
332.83 K, 22000 kPa, x2 = 0.5085 | 716.83 ± 0.41
332.83 K, 23003 kPa, x2 = 0.5085 | 718.86 ± 0.41
332.83 K, 24000 kPa, x2 = 0.5085 | 720.81 ± 0.42
332.83 K, 25002 kPa, x2 = 0.5085 | 722.78 ± 0.43
342.59 K, 5015 kPa, x2 = 0.3148 | 660.43 ± 0.3
342.59 K, 6006 kPa, x2 = 0.3148 | 662.35 ± 0.31
342.59 K, 7008 kPa, x2 = 0.3148 | 664.12 ± 0.31
342.59 K, 8003 kPa, x2 = 0.3148 | 665.96 ± 0.32
342.59 K, 9023 kPa, x2 = 0.3148 | 667.75 ± 0.33
342.59 K, 10000 kPa, x2 = 0.3148 | 669.58 ± 0.34
342.59 K, 11004 kPa, x2 = 0.3148 | 671.39 ± 0.35
342.59 K, 11999 kPa, x2 = 0.7514 | 668.27 ± 0.41
342.59 K, 12012 kPa, x2 = 0.3148 | 673.16 ± 0.35
342.59 K, 13009 kPa, x2 = 0.3148 | 674.92 ± 0.36
342.59 K, 13078 kPa, x2 = 0.7514 | 677.39 ± 0.41
342.59 K, 14002 kPa, x2 = 0.7514 | 684.02 ± 0.42
342.59 K, 14006 kPa, x2 = 0.3148 | 676.58 ± 0.37
342.59 K, 14980 kPa, x2 = 0.7514 | 690.44 ± 0.41
342.59 K, 15007 kPa, x2 = 0.3148 | 678.19 ± 0.38
342.59 K, 16000 kPa, x2 = 0.3148 | 679.78 ± 0.39
342.59 K, 16000 kPa, x2 = 0.7514 | 696.41 ± 0.41
342.59 K, 17006 kPa, x2 = 0.7514 | 701.98 ± 0.41
342.59 K, 17008 kPa, x2 = 0.3148 | 681.37 ± 0.39
342.59 K, 18003 kPa, x2 = 0.7514 | 707.17 ± 0.41
342.59 K, 18004 kPa, x2 = 0.3148 | 682.88 ± 0.4
342.59 K, 18988 kPa, x2 = 0.7514 | 711.38 ± 0.41
342.59 K, 19000 kPa, x2 = 0.3148 | 684.38 ± 0.41
342.59 K, 20000 kPa, x2 = 0.3148 | 685.86 ± 0.42
342.59 K, 20006 kPa, x2 = 0.7514 | 716.85 ± 0.42
342.59 K, 21010 kPa, x2 = 0.7514 | 721.31 ± 0.42
342.59 K, 21018 kPa, x2 = 0.3148 | 687.3 ± 0.43
342.59 K, 22004 kPa, x2 = 0.7514 | 725.37 ± 0.42
342.59 K, 22006 kPa, x2 = 0.3148 | 688.68 ± 0.43
342.59 K, 23009 kPa, x2 = 0.7514 | 729.36 ± 0.42
342.59 K, 23014 kPa, x2 = 0.3148 | 690.13 ± 0.44
342.59 K, 24006 kPa, x2 = 0.7514 | 733.15 ± 0.43
342.59 K, 24010 kPa, x2 = 0.3148 | 691.48 ± 0.45
342.59 K, 24951 kPa, x2 = 0.7514 | 736.71 ± 0.43
342.59 K, 25016 kPa, x2 = 0.3148 | 692.87 ± 0.46
342.68 K, 4004 kPa, x2 = 0.0218 | 646.95 ± 0.29
342.68 K, 5003 kPa, x2 = 0.0218 | 648.26 ± 0.3
342.68 K, 6004 kPa, x2 = 0.0218 | 649.55 ± 0.31
342.68 K, 7009 kPa, x2 = 0.0218 | 650.86 ± 0.32
342.68 K, 7996 kPa, x2 = 0.0218 | 652.09 ± 0.33
342.68 K, 9017 kPa, x2 = 0.0218 | 653.32 ± 0.33
342.68 K, 9997 kPa, x2 = 0.0218 | 654.54 ± 0.34
342.68 K, 11003 kPa, x2 = 0.0218 | 655.71 ± 0.35
342.68 K, 11998 kPa, x2 = 0.0218 | 656.85 ± 0.36
342.68 K, 13010 kPa, x2 = 0.0218 | 657.99 ± 0.37
342.68 K, 14002 kPa, x2 = 0.0218 | 659.11 ± 0.38
342.68 K, 15008 kPa, x2 = 0.0218 | 660.22 ± 0.39
